Measured values published in US8841277B2, “Methods for treating non-small cell lung cancer using 5-azacytidine” (Celgene Corporation, priority 2009, dated 2014).
Entries after “also recorded” stand apart in the source; their conditions may differ. One block for each molecule: values may come before it.

Key:
[1] = test system: LINE-1 elements in H1299 cells; assay: LINE-1 Methylation Assay, H1299; type: cell-based; details: for DNA hypomethylation (LINE-1 methylation): 48 hours or 72 hours
Experimental: (§1) Genomic DNA was purified from cells using the DNeasy Blood and Tissue Kit (Qiagen; Valencia, Calif.), according to the manufacturer's instructions. DNA yield was quantitated with a NanoDrop 8000 spectrophotometer (Thermo Fisher Scientific, Inc.). DNAs (1 μg/sample) were submitted to EpigenDx (Worcester, Mass.) for bisulfate conversion and pyrosequencing of LINE-1 elements. Briefly, 1 μg of DNA was bisulfite-treated using the Zymo DNA Methylation Kit (Zymo Research; Orange, Calif.) and eluted in 10 μL volume. DNA eluate (1 μL) was used for PCR with biotinylated primers to the LINE-1 locus, converting the PCR product to single-stranded DNA templates. PCR products (each 10 μL) were sequenced by Pyrosequencing PSQ96 HS System (Biotage AB), following the manufacturer's instructions (Biotage; Kungsgatan, Sweden). The methylation status of each locus was analyzed individually as a T/C SNP using QCpG software (Biotage). Percent LINE-1 methylation represents the average percent methylation of four CpG sites in duplicate samples.
(§2) At the highest drug concentration tested (3 μM), LINE-1 methylation was less affected, possibly due to reduced drug incorporation as a result of inhibited cell proliferation.

DNMT1 [2] = assay: DNMT1 protein depletion, A549; type: cell-based; details: for DNMT1 protein levels: dose range
Experimental: (§3) For western analyses of protein levels, cells were washed with PBS and lysed with RIPA buffer (Cell Signaling Technology, Inc.; Danvers, Mass.) containing 350 mM NaCl and 0.1% SDS. Cell lysates were sonicated with two 5-second bursts under low amplitude (20%) using the Digital Sonic Dismembrator (Thermo Fisher Scientific, Inc.; Waltham, Mass.). Proteins were separated on 4-12% Bis-Tris NuPAGE gels (Life Technologies Corporation) and transferred to nitrocellulose membranes. DNMT1, phos-Histone-H2AX(Ser139), total Histone-H2AX, cleaved-PARP, p21, p53, and alpha-tubulin were detected using the Li-Cor Odyssey imaging system (Li-Cor Biotechnology; Lincoln, Nebr.), following incubation with the appropriate primary and secondary antibodies. The phos-Histone-H2AX(Ser139), cleaved-PARP, and p21 antibodies were from Cell Signaling Technology, Inc. The p53 and total Histone-H2AX (C-20) antibodies were from Santa Cruz Biotechnology, Inc. (Santa Cruz, Calif.). The alpha-tubulin and DNMT1 antibodies were purchased from EMD Chemicals, Inc. (Gibbstown, N.J.) and Abcam, Inc. (Cambridge, Mass.), respectively. The goat anti-Rabbit IRDye 680, goat anti-Mouse IRDye 800CW, and donkey anti-Goat IRDye 800CW secondary antibodies were from Li-Cor Biotechnology.
(§4) Reduced DNMT1 levels were detected in these cell lines as early as 4 hours after drug treatment (FIG. 17).

MDS, AML, CML, ALL, NHL = details: e.g. treatment of MDS, Aparicio et al. 2002; cited from earlier work
[3] = test system: LINE-1 elements in A549 cells; assay: LINE-1 Methylation Assay, A549; type: cell-based; details: for DNA hypomethylation (LINE-1 methylation): 48 hours or 72 hours
Experimental: as §1, §2

DNMT1 [4] = assay: DNMT1 protein depletion, H460; type: cell-based; details: for DNMT1 protein levels: dose range
Experimental: as §3, §4

H1299 cells [5] = assay: Cell cycle distribution (NIM-DAPI), H1299; type: cell-based
Text: (§5) These studies examined the cell cycle distribution of NSCLC cells treated with AZA or DAC using NIM-DAPI analysis.
(§6) For cell cycle distribution, cells were stained with the NIM-DAPI reagent (Beckman Coulter, Inc.; Fullerton, Calif.). For measurement of early- and late-apoptotic cell populations, cells were stained with AnnexinV-FITC and 7-AAD reagents (Beckman Coulter, Inc.). Samples were processed according to manufacturer's instructions and analyzed on a Cell Lab Quanta MPL flow cytometer (Beckman Coulter, Inc.). […] Data were also collected for untreated cells as control.

H460 cells = assay: Western analysis of DNA damage and apoptosis markers, H460; type: cell-based; details: for Induction of Histone H2AX phosphorylation / Induction of PARP cleavage: 0.3-10 μM; for Induction of Histone H2AX phosphorylation: 24 h, 48 h, up to 72 hour
Experimental: These studies also examined apoptosis using an assay for PARP cleavage. Cells studied included H460, A549, and H1299 cells.
as §3

H1299 cells [6] = assay: Cell viability (CyQuant assay), H1299; type: cell-based; details: 72 hours; for HillSlope / LogIC50 / IC50: H1299 viability, best-fit value; for EC50 / IC50: Homo sapiens, NCI-H1299; for EC50: H1299, read-out: EC50 of effect on viability
Experimental: Certain NSCLC cell lines (H460, H1299, A549, and H1975) were purchased from American Type Culture Collection (ATCC; Manassas, Va.). The H23NSCLC cell line was obtained from the National Cancer Institute (NCI; Bethesda, Md.). Cell lines were cultured in their respective media, as recommended by ATCC and NCI. AZA was manufactured at Aptuit (Greenwich, Conn.) for Celgene (Summit, N.J.), while DAC was purchased from Sigma-Aldrich (St. Louis, Mo.). In all experiments, cells were seeded 24 hours before drug treatment and incubated at 37° C./5% CO2, For cell viability assays, H460, H1299, A549, H23, and H1975 cells were seeded in triplicate at 1×10^3, 1×10^3, 1×10^3, 4×10^3, and 4×10^3 cells per well, respectively, in 96-well plates, using 200 μL of medium per well. Fresh drug was added every 24 hours by replacing medium with drug-containing medium. For all other assays, cells were seeded at 0.6-1.2×10^5 cells per well, in 6-well plates, using 4 mL of medium per well, with fresh drug added directly to the medium every 24 hours.
Cell viability was assessed using the CyQuant assay (Life Technologies Corporation; Carlsbad, Calif.). Fluorescence was measured with a spectrophotometer (Molecular Devices; Sunnyvale, Calif.), and EC50 values were calculated in Prism® version 5.01 (GraphPad Software, Inc.; La Jolla, Calif.), using results from three independent experiments.
The six data sets represent calculations of EC50 values from raw data using Prism®. The standard deviation among the three independent experiments was determined at each drug concentration. For some of the cell lines, Prism® was not able to calculate the EC50 for DAC. For those curves that an EC50 was available, the SE (Std. Error) was acceptable (SE of the logEC50 should be less than 0.5), meaning that the standard errors were not too large. The 95% Confidence Intervals for the EC50 were considered as a measure of error.

H1299 cells [7] = assay: Apoptosis (AnnexinV-FITC/7-AAD), H1299; type: cell-based; details: 0.3-10 μM
Text: as §6

H1975 cells = assay: Cell cycle distribution (NIM-DAPI), H1975; type: cell-based; details: 72-hour treatment, 0.3-10 μM
Text: as §5, §6

[8] = 0.3-10 μM, 24 h and 48 h (Example 5)

EC50 (H1299 cells [6]): 5.1 µM
IC50 (H1299 cells [6]): 5.12 µM
SMILES: Nc1ncn([C@@H]2O[C@H](CO)[C@@H](O)[C@H]2O)c(=O)n1 [AZA, 4-amino-1-β-D-ribofuranosyl-1,3,5-triazin-2(1H)-one]
Concentration of peak hypomethylation (LINE-1) ([1]; 48 or 72 hours): 0.3-1 μM
DNA hypomethylation (LINE-1 methylation) [1]: induced DNA hypomethylation; also recorded: caused a decrease in LINE-1 methylation
DNMT1 protein levels (DNMT1 [2]; 20 hours): significantly reduced
Anti-tumor activity in clinical trials (MDS, AML, CML, ALL, NHL): significant anti-tumor activity
Concentration of peak hypomethylation (LINE-1) ([3]; 48 or 72 hours): 0.3-1 μM
DNA hypomethylation (LINE-1 methylation) [3]: induced DNA hypomethylation; also recorded: caused a decrease in LINE-1 methylation
DNMT1 protein levels (DNMT1 [4]; 20 hours): significantly reduced
Cell cycle distribution (NIM DAPI) (H1299 cells [5]; 72-hour treatment, 0.3-10 μM): induced accumulation of cells in G2/M and Sub-G1
Cell cycle distribution (NIM DAPI) (H1299 cells [5]; summary of studies): induced accumulation of cells in Sub-G1
Concentrations affecting Histone H2AX phosphorylation and PARP cleavage (H460 cells): above 1 μM
Induction of Histone H2AX phosphorylation (H460 cells): induced
Induction of PARP cleavage (H460 cells; 24 h and 48 h): induced
HillSlope (H1299 cells [6]): −1.138
LogIC50 (H1299 cells [6]): 0.7095
Early- and late-apoptotic cell populations (AnnexinV/7-AAD) (H1299 cells [7]; 48-hour treatment): dramatic increase in early-apoptotic (AnnexinV^+ 7-AAD^−) and late-apoptotic (AnnexinV^+ 7-AAD^+) cells
Early- and late-apoptotic cell populations (AnnexinV/7-AAD) (H1299 cells [7]; 72-hour treatment): dramatic increase in early-apoptotic (AnnexinV^+ 7-AAD^−) and late-apoptotic (AnnexinV^+ 7-AAD^+) cells
Cell cycle distribution (NIM DAPI) (H1975 cells): decrease of cells in G0/G1 and accumulation of cells in G2/M and Sub-G1

EC50 (H1299 cells [6]): 5.2 µM
IC50 (H1299 cells [6]): 5.19 µM
SMILES: Nc1ncn([C@H]2C[C@H](O)[C@@H](CO)O2)c(=O)n1 [DAC, 5-aza-2′-deoxycytidine]
Concentration of peak hypomethylation (LINE-1) ([1]; 48 or 72 hours): 0.1 μM
Potency in decreasing LINE-1 methylation relative to AZA ([1]; 48 or 72 hours): 3- to 10 fold
DNA hypomethylation (LINE-1 methylation) [1]: induced DNA hypomethylation; also recorded: caused a decrease in LINE-1 methylation
DNMT1 depletion (DNMT1 [2]; [8]): able to cause DNMT1 depletion
Relative potency in reducing DNMT1 levels (DNMT1 [2]; 20 hours): more potent than AZA
Concentration of maximal reduction of DNMT1 levels (DNMT1 [2]; 20 hours, lowest concentration tested): 0.05 µM
DNMT1 protein levels (DNMT1 [2]; 20 hours): significantly reduced
Anti-tumor activity in clinical trials (MDS, AML, CML, ALL, NHL): significant anti-tumor activity
Concentration of peak hypomethylation (LINE-1) ([3]; 48 or 72 hours): 0.1 μM
Potency in decreasing LINE-1 methylation relative to AZA ([3]; 48 or 72 hours): 3- to 10 fold
DNA hypomethylation (LINE-1 methylation) [3]: induced DNA hypomethylation; also recorded: caused a decrease in LINE-1 methylation
DNMT1 depletion (DNMT1 [4]; [8]): able to cause DNMT1 depletion
Relative potency in reducing DNMT1 levels (DNMT1 [4]; 20 hours): equipotent
DNMT1 protein levels (DNMT1 [4]; 20 hours): significantly reduced
Cell cycle distribution (NIM DAPI) (H1299 cells [5]; 48-hour treatment, 0.3-10 μM): induced accumulation of cells in G2/M
Cell cycle distribution (NIM DAPI) (H1299 cells [5]; 72-hour treatment, 0.3-10 μM): induced accumulation of cells in G2/M and Sub-G1; also recorded: induced accumulation of cells in Sub-G1 while DAC also caused an increase of cells in G2/M
Cell cycle distribution (NIM DAPI) (H1299 cells [5]; summary of studies): induced accumulation of cells in Sub-G1 while DAC also caused an increase of cells in G2/M
Induction of Histone H2AX phosphorylation (H460 cells): did not have any effect
Induction of PARP cleavage (H460 cells; 24 h and 48 h): did not have any effect
p21 expression (H460 cells; 24 h and 48 h, dose-dependent): induce
p53 expression (H460 cells; 24 h and 48 h, dose-dependent): induce
HillSlope (H1299 cells [6]): −0.4536
LogIC50 (H1299 cells [6]): 0.7153
Early- and late-apoptotic cell populations (AnnexinV/7-AAD) (H1299 cells [7]; 48-hour treatment): very slight increase in these cell populations
Early- and late-apoptotic cell populations (AnnexinV/7-AAD) (H1299 cells [7]; 72-hour treatment): very slight increase in these cell populations
Cell cycle distribution (NIM DAPI) (H1975 cells): slight increases in G2/M and Sub-G1
